In patent US9096632B2, “Modulator of activity of adenylate cyclase” (Public University Corporation Yokohama City University, priority 2010, dated 2015):

Test: Water solubility / hydrophilicity (stock solutions in pure water)
Format: physicochemical
Details: in words
Procedure: The thus synthesized position 2-substituted derivative (V2E), position 3-substituted derivative (V3E) and position 5-substituted derivative (V5E) were dissolved in pure water to give a concentration of 10 mM, to thereby prepare stock solutions. Vidarabine was dissolved in 100% dimethylsulfoxide to thereby prepare a 10 mM stock solution.
The newly synthesized three vidarabine derivatives (FIG. 1) were dissolved in pure water to thereby prepare 10 mM stock solutions. Since vidarabine infusion of about 2 mM is used in clinical scenes as an antiherpes therapeutic (Arasena-A for intravenous infusion; Mochida Pharmaceutical Co., Ltd.), it was possible to prepare solutions at concentrations about 5 times higher than that of the infusion. In the present study, vidarabine was dissolved in 100% DMSO to prepare a 10 mM stock solution.

## CN(C)CC(=O)OC1C(O)C(CO)OC1n1cnc2c(N)ncnc21 (stereo not shown) [V2E, 2-O—(N,N-Dimethylglycyl)Vidarabine]
  hydrophilicity: highly hydrophilic
